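Compound exposure: 48 hours, 5 concentrations, 96-well plates. GI50 is the concentration that inhibits growth by half.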 Activity calls are given as the source filed them. Rule as the data show it: active = GI50 up to about 1.1 µM and inactive = higher.
Experiments:
Assay in all cases: NCI-60 cell line screen, 48 h
[1] = test system: CAKI-1
[2] = test system: OVCAR-8
[3] = test system: UO-31
[4] = test system: T47D
[5] = test system: UACC-62
[6] = test system: MDA-MB-231
[7] = test system: CCRF-CEM
[8] = test system: A498
[9] = test system: U-251
[10] = test system: SK-OV-3
[11] = test system: TK-10
[12] = test system: MDA-MB-435
[13] = test system: K562
[14] = test system: UACC-257
[15] = test system: A549
[16] = test system: MOLT-4
[17] = test system: LOX IMVI
[18] = test system: IGROV-1
[19] = test system: SF-539
[20] = test system: HL-60

| Structure (SMILES) | GI50 [1] | GI50 [2] | GI50 [3] | GI50 [4] | GI50 [5] | GI50 [6] | GI50 [7] | GI50 [8] | GI50 [9] | GI50 [10] | GI50 [11] | GI50 [12] | GI50 [13] | GI50 [14] | GI50 [15] | GI50 [16] | GI50 [17] | GI50 [18] | GI50 [19] | GI50 [20] |
| --- | --- | --- | --- | --- | --- | --- | --- | --- | --- | --- | --- | --- | --- | --- | --- | --- | --- | --- | --- | --- |
| Cc1ccsc1/C=N/Nc1nc2ccccc2s1 | 15.5 µM (inactive) | 23 µM (inactive) | 20.8 µM (inactive) | 48.8 µM (inactive) | 27.9 µM (inactive) | 12.8 µM (inactive) | 15.4 µM (inactive) | 2.35 µM (inactive) | 13.5 µM (inactive) | 12.5 µM (inactive) | 13.9 µM (inactive) | 70.1 µM (inactive) | 14.7 µM (inactive) | 20.4 µM (inactive) | 16.3 µM (inactive) | 16.2 µM (inactive) | 23.9 µM (inactive) | 11 µM (inactive) |  |  |
| CC1OC(OC2C(O)COC(OC3C(C)OC(OC4C(OC(=O)[C@]56CCC(C)(C)C[C@@H]5C5=CCC7[C@@]8(C)C[C@H](O)[C@H](OC9OC(CO)C(O)C(OC%10OC(CO)C(O)C(O)C%10O)C9O)[C@@](C)(CO)[C@@H]8CC[C@@]7(C)[C@]5(C)CC6)OCC(O)C4O)C(O)C3O)C2O)C(O)C(O)C1O (stereo partly drawn) | 3.19 µM (inactive) | 17 µM (inactive) | 4.17 µM (inactive) | 16 µM (inactive) | 22.3 µM (inactive) | 16.3 µM (inactive) | 14.7 µM (inactive) | 11.8 µM (inactive) | 17.5 µM (inactive) | 15.7 µM (inactive) | 18.8 µM (inactive) | 20.9 µM (inactive) | 31.2 µM (inactive) | 18.3 µM (inactive) | 14.4 µM (inactive) | 15.5 µM (inactive) | 18 µM (inactive) |  | 18.4 µM (inactive) |  |
| COc1cc(C2c3cc4c(cc3OC(NN)C2C)OCO4)cc(OC)c1O (stereo not drawn) | 10.4 µM (inactive) | 16.5 µM (inactive) | 19.8 µM (inactive) | 7.28 µM (inactive) | 4.92 µM (inactive) | 9.2 µM (inactive) |  |  | 7.23 µM (inactive) |  | 26.2 µM (inactive) | 2.32 µM (inactive) | 3.08 µM (inactive) | 18.5 µM (inactive) | 8.2 µM (inactive) |  |  | 5.94 µM (inactive) | 11.9 µM (inactive) | 2.24 µM (inactive) |
| CC(C)/C(Cl)=N\OC(=O)Nc1ccc(F)cc1F | 19.3 µM (inactive) | 15.6 µM (inactive) | 7.52 µM (inactive) | 14.4 µM (inactive) | 16.9 µM (inactive) | 2.21 µM (inactive) | 0.836 µM (active) | 17 µM (inactive) | 18 µM (inactive) | 17.1 µM (inactive) | 5.19 µM (inactive) |  | 1.26 µM (inactive) | 14.1 µM (inactive) | 18.4 µM (inactive) | 1.85 µM (inactive) | 1.66 µM (inactive) | 16 µM (inactive) | 15.8 µM (inactive) | 0.486 µM (active) |
| O=c1[nH]nc(-c2ccccc2)c2[nH]c3c(c12)CCCc1ccccc1-3 | 22 µM (inactive) | 17.4 µM (inactive) | 12.8 µM (inactive) | 8.97 µM (inactive) | 11.7 µM (inactive) | 15.9 µM (inactive) | 14 µM (inactive) |  | 11.4 µM (inactive) | 52.2 µM (inactive) | 19.4 µM (inactive) | 13 µM (inactive) | 12.8 µM (inactive) | 18.7 µM (inactive) | 9.46 µM (inactive) | 10.9 µM (inactive) | 16.5 µM (inactive) | 12.5 µM (inactive) | 17.2 µM (inactive) | 20.9 µM (inactive) |
| CC1=CC(=O)/C(=C(/C)NCCN(CCN/C(C)=C2\C(=O)C=C(C)OC2=O)CCN/C(C)=C2\C(=O)C=C(C)OC2=O)C(=O)O1 |  | > 100 µM (inactive) | > 100 µM (inactive) | > 100 µM (inactive) |  | > 100 µM (inactive) | > 100 µM (inactive) |  | > 100 µM (inactive) | > 100 µM (inactive) | > 100 µM (inactive) | > 100 µM (inactive) | > 100 µM (inactive) | > 100 µM (inactive) | > 100 µM (inactive) | > 100 µM (inactive) |  | > 100 µM (inactive) | > 100 µM (inactive) | > 100 µM (inactive) |
| Clc1ccc(CNc2nc(Cl)c3nc[nH]c3n2)cc1Cl | 23.2 µM (inactive) | 17.9 µM (inactive) | 11.4 µM (inactive) | 6.71 µM (inactive) | 11.2 µM (inactive) | 30.8 µM (inactive) | 35.5 µM (inactive) | 11.1 µM (inactive) | 36.2 µM (inactive) | 20.6 µM (inactive) | 12.2 µM (inactive) | 32 µM (inactive) | 20.3 µM (inactive) | 13.5 µM (inactive) | 23.1 µM (inactive) | 33.6 µM (inactive) |  | 42.7 µM (inactive) | 13.5 µM (inactive) |  |
